In this assay the test system is HCT116. The settings on record: 72 h. The method, boiled down: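 HCT116 cells were seeded at 250 per well in 1536-well plates and left 5 h to attach. CellTiter-Glo luminescence was scaled to vehicle (0%) and positive control (-100%), then pattern-corrected. IC50 and maximal efficacy came from four-parameter Hill fits.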

Counter-ions that a name gives are not always drawn.

Regarding `Cc1ncc(CO)c(CO)c1O` [Pyridoxine], the IC50 cell viability reads like this: (ICRF193 0 nM) more than 45.8 µM; (ICRF193 200 nM) more than 45.8 µM.
On to `COc1ccc(CN(CCN(C)C)c2ccccn2)cc1` [Pyrilamine], for which the IC50 cell viability is, setting by setting: (ICRF193 0 nM) more than 45.8 µM; (ICRF193 200 nM) more than 45.8 µM.
As for `CC(COc1ccc(Oc2ccccc2)cc1)Oc1ccccn1` (stereo unspecified) [Pyriproxyfen], the IC50 cell viability by setting is: (ICRF193 0 nM) more than 45.8 µM; (ICRF193 200 nM) more than 45.8 µM.
`Cc1ncc(CSSCc2cnc(C)c(O)c2CO)c(CO)c1O` [Pyrithioxin dihydrochloride]: the IC50 cell viability was more than 45.8 µM (ICRF193 0 nM) and more than 45.8 µM (ICRF193 200 nM).
As to `O=P(O)(O)OP(=O)(O)O` [Pyrophosphoric acid], the IC50 cell viability is, setting by setting: (ICRF193 0 nM) more than 45.8 µM; (ICRF193 200 nM) more than 45.8 µM.
As to `C=C[C@H]1CN2CC[C@H]1C[C@H]2[C@H](OC(=O)OCC)c1ccnc2ccc(OC)cc12` [QUININE ETHYL CARBONATE], the IC50 cell viability (ICRF193 0 nM) is more than 45.8 µM and the IC50 cell viability (ICRF193 200 nM) is more than 45.8 µM.
Regarding `CC(C(=O)O)c1ccc(C2CCCCC2)c2ccccc12` (stereo unspecified) [Quadrisol], the IC50 cell viability (ICRF193 0 nM) was more than 45.8 µM and the IC50 cell viability (ICRF193 200 nM) is more than 45.8 µM.
As to `O=c1c(O)c(-c2ccc(O)c(O)c2)oc2cc(O)cc(O)c12` [Quercetin], the IC50 cell viability is, setting by setting: (ICRF193 0 nM) more than 45.8 µM; (ICRF193 200 nM) more than 45.8 µM.
With `OCCOCCN1CCN(C2=Nc3ccccc3Sc3ccccc32)CC1` [Quetiapine], the IC50 cell viability reads like this: (ICRF193 0 nM) more than 45.8 µM; (ICRF193 200 nM) more than 45.8 µM.
Consider `CCCN1CC(NS(=O)(=O)N(CC)CC)CC2Cc3c(O)cccc3CC21` (stereo unspecified) [Quinagolide (hydrochloride)], for which the IC50 cell viability is, setting by setting: (ICRF193 0 nM) more than 45.8 µM; (ICRF193 200 nM) more than 45.8 µM.
On to `CCOC(=O)[C@H](CCc1ccccc1)N[C@@H](C)C(=O)N1Cc2ccccc2C[C@H]1C(=O)O` [Quinapril hydrochloride], for which the IC50 cell viability runs as follows: (ICRF193 0 nM) more than 45.8 µM; (ICRF193 200 nM) more than 45.8 µM.
Regarding `CCC1NC(=O)c2cc(S(N)(=O)=O)c(Cl)cc2N1` (stereo unspecified) [Quinethazone], the IC50 cell viability runs as follows: (ICRF193 0 nM) more than 45.8 µM; (ICRF193 200 nM) more than 45.8 µM.
As for `C=C[C@H]1CN2CC[C@H]1C[C@@H]2[C@@H](O)c1ccnc2ccc(OC)cc12` [Quinidine hydrochloride monohydrate], the IC50 cell viability is more than 45.8 µM (ICRF193 0 nM) and more than 45.8 µM (ICRF193 200 nM).
Consider `CC(C)NC[C@@H](O)COc1ccc(CC(N)=O)cc1` [R-(+)-Atenolol], for which the IC50 cell viability runs as follows: (ICRF193 0 nM) more than 45.8 µM; (ICRF193 200 nM) more than 45.8 µM.
Consider `CNC(C)C(O)c1ccccc1` (stereo unspecified) [RACEPHEDRINE HYDROCHLORIDE], for which the IC50 cell viability was more than 45.8 µM (ICRF193 0 nM) and more than 45.8 µM (ICRF193 200 nM).
`CC(CCc1ccc(O)cc1)NCC(O)c1ccc(O)cc1` (stereo unspecified) [RACTOPAMINE HYDROCHLORIDE]: the IC50 cell viability by setting is: (ICRF193 0 nM) more than 45.8 µM; (ICRF193 200 nM) more than 45.8 µM.
As to `CC1=C(/C=C/C(C)=C/C=C/C(C)=C/CO)C(C)(C)CCC1` [RETINOL], the IC50 cell viability is more than 45.8 µM (ICRF193 0 nM) and more than 45.8 µM (ICRF193 200 nM).
For the compound `Cc1cc2nc3c(=O)[nH]c(=O)nc-3n(CC(O)C(O)C(O)COP(=O)(O)O)c2cc1C` (stereo unspecified) [RIBOFLAVIN 5-PHOSPHATE SODIUM], the IC50 cell viability (ICRF193 0 nM) was more than 45.8 µM and the IC50 cell viability (ICRF193 200 nM) was more than 45.8 µM.
Take `CCc1ccc(Nc2c(F)c(F)cc(F)c2F)c(CC(=O)O)c1` [ROBENACOXIB]: the IC50 cell viability runs as follows: (ICRF193 0 nM) more than 45.8 µM; (ICRF193 200 nM) more than 45.8 µM.
For `Fc1cccc(Br)c1NC1=NCCN1` [ROMIFIDINE], the IC50 cell viability (ICRF193 0 nM) was more than 45.8 µM and the IC50 cell viability (ICRF193 200 nM) was more than 45.8 µM.
Regarding `CCCCCCCCCCCCCCCCCC(=O)NCCCC[C@H](NC(=O)CC[C@@H](NC(=O)[C@H](C)NC(=O)[C@@H](C)O[C@H]1[C@H](O)[C@@H](CO)OC(O)[C@@H]1NC(C)=O)C(N)=O)C(=O)O` (stereo partly specified) [ROMURTIDE], the IC50 cell viability is, setting by setting: (ICRF193 0 nM) more than 45.8 µM; (ICRF193 200 nM) more than 45.8 µM.
As for `COCCCOc1ccnc(C[S+]([O-])c2nc3ccccc3[nH]2)c1C` (stereo unspecified) [Rabeprazole], the IC50 cell viability by setting is: (ICRF193 0 nM) more than 45.8 µM; (ICRF193 200 nM) more than 45.8 µM.
For the compound `Cc1nnc(C(=O)NC(C)(C)c2nc(C(=O)NCc3ccc(F)cc3)c(O)c(=O)n2C)o1` [Raltegravir], the IC50 cell viability (ICRF193 0 nM) is more than 45.8 µM and the IC50 cell viability (ICRF193 200 nM) is more than 45.8 µM.
Turning to `Cc1nc(=O)c2cc(CN(C)c3ccc(C(=O)N[C@@H](CCC(=O)O)C(=O)O)s3)ccc2[nH]1` [Raltitrexed], the IC50 cell viability is more than 45.8 µM (ICRF193 0 nM) and more than 45.8 µM (ICRF193 200 nM).
On to `O=C(O)CCn1c2c(c3ccccc31)C[C@H](NS(=O)(=O)c1ccc(F)cc1)CC2` [Ramatroban], for which the IC50 cell viability is, setting by setting: (ICRF193 0 nM) more than 45.8 µM; (ICRF193 200 nM) more than 45.8 µM.
In the case of `CCC(=O)NCC[C@@H]1CCc2ccc3c(c21)CCO3` [Ramelteon], the IC50 cell viability by setting is: (ICRF193 0 nM) more than 45.8 µM; (ICRF193 200 nM) more than 45.8 µM.
Turning to `CCOC(=O)[C@H](CCc1ccccc1)N[C@@H](C)C(=O)N1[C@H](C(=O)O)C[C@@H]2CCC[C@@H]21` [Ramipril], the IC50 cell viability runs as follows: (ICRF193 0 nM) more than 45.8 µM; (ICRF193 200 nM) more than 45.8 µM.
Regarding `Cn1cc(C(=O)[C@@H]2CCc3[nH]cnc3C2)c2ccccc21` [Ramosetron hydrochloride], the IC50 cell viability (ICRF193 0 nM) was more than 45.8 µM and the IC50 cell viability (ICRF193 200 nM) is more than 45.8 µM.
As to `CNC(=C[N+](=O)[O-])NCCSCc1ccc(CN(C)C)o1` [Ranitidine], the IC50 cell viability is more than 45.8 µM (ICRF193 0 nM) and more than 45.8 µM (ICRF193 200 nM).
Regarding `COc1ccccc1OCC(O)CN1CCN(CC(=O)Nc2c(C)cccc2C)CC1` (stereo unspecified) [Ranolazine], the IC50 cell viability is, setting by setting: (ICRF193 0 nM) more than 45.8 µM; (ICRF193 200 nM) more than 45.8 µM.
As for `C=CC[N+]1([C@H]2C[C@H]3[C@@H]4CC[C@H]5C[C@H](OC(C)=O)[C@@H](N6CCCCC6)C[C@]5(C)[C@H]4CC[C@]3(C)[C@H]2OC(=O)CC)CCCCC1` [Rapacuronium bromide], the IC50 cell viability runs as follows: (ICRF193 0 nM) more than 45.8 µM; (ICRF193 200 nM) more than 45.8 µM.
Consider `C#CCN[C@@H]1CCc2ccccc21` [Rasagiline mesylate], for which the IC50 cell viability reads like this: (ICRF193 0 nM) more than 45.8 µM; (ICRF193 200 nM) more than 45.8 µM.
In turn, `O=C(NC(Cc1cc(=O)[nH]c2ccccc12)C(=O)O)c1ccc(Cl)cc1` (stereo unspecified) [Rebamipide] gave an IC50 cell viability (ICRF193 0 nM) of more than 45.8 µM and an IC50 cell viability (ICRF193 200 nM) of more than 45.8 µM.
`CCOc1ccccc1OC(c1ccccc1)C1CNCCO1` (stereo unspecified) [Reboxetine mesylate]: the IC50 cell viability by setting is: (ICRF193 0 nM) more than 45.8 µM; (ICRF193 200 nM) more than 45.8 µM.
As to `CCOc1cc(CC(=O)N[C@@H](CC(C)C)c2ccccc2N2CCCCC2)ccc1C(=O)O` [Repaglinide], the IC50 cell viability is, setting by setting: (ICRF193 0 nM) more than 45.8 µM; (ICRF193 200 nM) more than 45.8 µM.
Take `COC(=O)[C@H]1[C@H]2C[C@@H]3c4[nH]c5cc(OC)ccc5c4CCN3C[C@H]2C[C@@H](OC(=O)/C=C/c2cc(OC)c(OC)c(OC)c2)[C@@H]1OC` [Rescinnamin]: the IC50 cell viability by setting is: (ICRF193 0 nM) more than 45.8 µM; (ICRF193 200 nM) more than 45.8 µM.
For the compound `CCCC(=O)O[C@]1(C(=O)CC)CC[C@H]2[C@@H]3CCC4=CC(=O)CC[C@]4(C)[C@H]3[C@@H](O)C[C@@]21C` [Resocortol butyrate], the IC50 cell viability was more than 45.8 µM (ICRF193 0 nM) and more than 45.8 µM (ICRF193 200 nM).
In turn, `CC(=O)Oc1cccc(O)c1` [Resorcinol monoacetate] displayed an IC50 cell viability (ICRF193 0 nM) of more than 45.8 µM and an IC50 cell viability (ICRF193 200 nM) of more than 45.8 µM.

Values taken from the supplement of paper PMC12137928.
